Laboratory results from patent US12415987B2, “Methods and composition for producing and using immune cells and stem cells for cell-based therapies” (Angeles Therapeutics, Inc., priority 2016, dated 2025).

What was measured:
Assay type in all cases: cell-based, human
[1] = system: Pgp^+ T cells; test: Chemotherapeutic selection of T cells: Pgp+ enrichment by DiOC2(3) efflux assay; conditions: for % pgp+ (out of live cells): 8 days post-treatment; for % Pgp^+ (DiOC2(3)-dull) (out of live cells): 2 days post-treatment; for % Pgp+ (DiOC2(3)-dull) (gated on live cells): 7 days post-treatment;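 as to all read-outs here: CD3-isolated T cells exposed to chemotherapeutics, then loaded with DiOC2(3) and left to efflux dye, PI stained, flow cytometry, Pgp+ cells read as DiOC2(3)-dull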
Experimental: Half (6 million) of the T cells were left untreated while the remaining half were treated with 10 μM of TH9402 compound. Cells were incubated at 37° C. in a water bath in dark for 40 min, washed with T-cell medium and then resuspended in TH9402-free T-cell medium. Cells were allowed to efflux TH9402 at 37° C. in dark in 10 ml of T cell medium for 2 h. Cells were centrifuged and re-suspended in fresh medium. Each sample was then plated in 2 wells of two different 6-well plates. One plate was left unexposed to light and the second plate was exposed for 1 h to light (1000×10 Lux units) from an LED lamp. […] After light exposure, cells were incubated in the XVIVO T cell medium with 5 ng/ml IL7 at 37° C. for 2 days in a 5% CO2 incubator. After 2 days, an aliquot of the cells were stained at 4° C. for 40 min with DiOC2(3) (60 ng/ml) in 10 ml RPMI with 10% FBS medium. DiOC2(3) is a known substrate of Pgp. Cells were centrifuged, washed, resuspended in 10 ml of dye-free RPMI-10% FBS medium to efflux dye at 37° C. for 90 min. After Dye efflux, the cells were stained with Propidium iodide (PI) and examined by flow cytometry.
(§4) T cells were isolated using CD3 microbeads. Cells were resuspended in T cell culture medium and treated under the following conditions. • 1. High dose Vincristine Treatment: Cells were treated with Vincristine (Sigma) at doses of 100, 250, 500, 750, 1000 ng/ml for 24 h. The following day, the medium was changed and cells cultured in Vincristine-free medium. • 2. Intermediate Dose Vincristine Treatment: Cells were treated with vincristine at intermediate doses of 5, 10, 20, 30, 50 ng/ml with continuous exposure of the drug thereafter. • 3. Low dose Vincristine Treatment: Cells were treated with vincristine at low doses 0.5, 1, 2, 2.5, 3 ng/ml with continuous exposure to the drug thereafter.
(§5) Cells were treated with Etoposide at dose 100, 500, 1000 nM • 6. Cells were treated with Adriamycin (doxorubicin) at 0.1, 0.5, 1 μg/ml
(§6) T cells treated with intermediate and high dose of vincristine were checked for Pgp^+ enrichment by DiOC2(3) efflux assay and cell death by Propidium iodide staining after 2 days of treatment. Cells were analyzed by flow cytometry.

[2] = system: T cells; test: Chemotherapeutic selection of T cells: cell death by propidium iodide staining;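 also: CD3 microbead-isolated T cells cultured with chemotherapy drugs, dead cells scored as propidium iodide-positive by flow cytometry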
Experimental: as §4, §5, §6

[3] = system: Pgp-expressing T cells; test: Photodynamic cell therapy with TH9402: Pgp+ T cells by DiOC2(3) efflux (and CD62L staining); conditions: for % Pgp^+ cells (DiOC2(3)-dull): after 2 days
Experimental: (§1) T cells were isolated using PAN T-cell isolation kit (Miltenyi cat no. 130-096-535) from buffy coat preparation following Ficoll-Hypaque separation and RBC lysis as described above. 12 million T cells were resuspended at 1 million cells/ml in XVIVO T cell medium (Lonza) supplemented with 5 ng/ml IL7. Half (6 million) of the T cells were left untreated while the remaining half were treated with 10 μM of TH9402 compound. Cells were incubated at 37° C. in a water bath in dark for 40 min, washed with T-cell medium and then resuspended in TH9402-free T-cell medium. Cells were allowed to efflux TH9402 at 37° C. in dark in 10 ml of T cell medium for 2 h. Cells were centrifuged and re-suspended in fresh medium. Each sample was then plated in 2 wells of two different 6-well plates. One plate was left unexposed to light and the second plate was exposed for 1 h to light (1000×10 Lux units) from an LED lamp. Alternatively, light treatment can be achieved by exposure to a fluorescent light-scanning device (PDCT-Xerox Series 4, Theratechnologies) delivering 5 J/cm^2 at wavelength of 514 nm. After light exposure, cells were incubated in the XVIVO T cell medium with 5 ng/ml IL7 at 37° C. for 2 days in a 5% CO2 incubator. After 2 days, an aliquot of the cells were stained at 4° C. for 40 min with DiOC2(3) (60 ng/ml) in 10 ml RPMI with 10% FBS medium. DiOC2(3) is a known substrate of Pgp. Cells were centrifuged, washed, resuspended in 10 ml of dye-free RPMI-10% FBS medium to efflux dye at 37° C. for 90 min. After Dye efflux, the cells were stained with Propidium iodide (PI) and examined by flow cytometry. […] Furthermore, in the group that was treated with the TH9402 compound and then exposed to light, there was further enrichment for Pgp-expressing T cells (from 10% to 80%).
(§2) After 6 days, 250 μl cell aliquot from T cells were stained with DiOC2(3), allowed to efflux the dye and then stained with CD62L-APC, a marker present on human memory stem T cells (TSCM) with stem like properties.
(§3) After 9 days, 1 ml cell aliquot from T cells were stained with DiOC2(3), allowed to efflux the dye and then stained with CD62L-APC, a marker present on human memory stem T cells (TSCM) with stem like properties. Cells were then analyzed by flow cytometry. The % of cells in the different fractions are shown in FIG. 2 and the following table which show there is a significant decline in cell viability following exposure to light in both TH9402-treated and untreated cells.

[4] = system: T cells; test: Photodynamic cell therapy with TH9402: live T cells by flow cytometry / propidium iodide; conditions: for % live cells (Propidium iodide negative): after 9 days
Experimental: as §1, §2, §3

[5] = system: PBMC; test: Photodynamic TH9402 experiment repeated with PBMC; conditions: PBMC rather than purified T cells
[6] = 10 μM TH9402, 1 h exposure to light
[7] = 10 μM TH9402, 1 h exposure to light, after 6 days
[8] = 10 μM TH9402, 1 h exposure to light, after 9 days
[9] = 10 μM TH9402, unexposed to light
[10] = 10 μM TH9402, unexposed to light, after 6 days
[11] = 10 μM TH9402, unexposed to light, after 9 days
[12] = 100 ng/ml for 24 h then drug-free medium
[13] = 250 ng/ml for 24 h then drug-free medium
[14] = 500 ng/ml for 24 h then drug-free medium
[15] = 750 ng/ml for 24 h then drug-free medium
[16] = 1 μg/ml for 24 h then drug-free medium

COc1cccc2c1C(=O)c1c(O)c3c(c(O)c1C2=O)C[C@@](O)(C(=O)CO)C[C@@H]3O[C@H]1C[C@H](N)[C@H](O)[C@H](C)O1 [Adriamycin, doxorubicin]
enrichment of Pgp^+ or DiOC2(3)-dull cells (in words) ([1]; 1 μg/ml, after 8 days of treatment): significant enrichment
% pgp+ (out of live cells) ([1]; 0.1 μg/ml): 16%
% pgp+ (out of live cells) ([1]; 0.5 μg/ml): 16%
% pgp+ (out of live cells) ([1]; 1 μg/ml): 27%
% Cell Death (PI+ cells) ([2]; 8 days post-treatment, 0.1 μg/ml): 5%
% Cell Death (PI+ cells) ([2]; 8 days post-treatment, 0.5 μg/ml): 7%
% Cell Death (PI+ cells) ([2]; 8 days post-treatment, 1 μg/ml): 12%

COc1cc([C@@H]2c3cc4c(cc3[C@@H](O[C@@H]3O[C@@H]5CO[C@@H](C)O[C@H]5[C@H](O)[C@H]3O)[C@H]3COC(=O)[C@H]23)OCO4)cc(OC)c1O [Etoposide]
% pgp+ (out of live cells) ([1]; 0.1 uM): 15%
% pgp+ (out of live cells) ([1]; 1 uM): 15%
% pgp+ (out of live cells) ([1]; 0.5 unM): 16%
% Cell Death (PI+ cells) ([2]; 8 days post-treatment, 0.1 uM): 5%
% Cell Death (PI+ cells) ([2]; 8 days post-treatment, 1 uM): 5%
% Cell Death (PI+ cells) ([2]; 8 days post-treatment, 0.5 unM): 4%

CO[C@H]1C[C@@H]2CC[C@@H](C)[C@@](O)(O2)C(=O)C(=O)N2CCCC[C@H]2C(=O)O[C@H]([C@H](C)C[C@@H]2CC[C@@H](O)[C@H](OC)C2)CC(=O)[C@H](C)/C=C(\C)[C@@H](O)[C@@H](OC)C(=O)[C@H](C)C[C@H](C)/C=C/C=C/C=C/1C [Rapamycin]
% pgp+ (out of live cells) ([1]; 100 ng/ml): 15%
% Cell Death (PI+ cells) ([2]; 8 days post-treatment, 100 ng/ml): 11%

COC(=O)c1ccccc1-c1c2ccc(=N)c(Br)c-2oc2c(Br)c(N)ccc12 [TH9402]
% Pgp^+ cells (DiOC2(3)-dull) [3, 6]: 80%
% Pgp^+ (DiOC2(3)-dull cells (based on dye efflux) (gated on live cells)) [3, 7]: 70%
% Pgp^+ (DiOC2(3)-dull), CD62L+ cells (gated on live cells) [3, 7]: 69%
% Pgp^+ (DiOC2(3)-dull cells (based on dye efflux) (gated on live cells)) [3, 8]: 79%
% Pgp^+ (DiOC2(3)-dull), CD62L+ cells (gated on live cells) [3, 8]: 67%
% Pgp^+ cells (DiOC2(3)-dull) [3, 9]: 10%
% Pgp^+ (DiOC2(3)-dull cells (based on dye efflux) (gated on live cells)) [3, 10]: 4%
% Pgp^+ (DiOC2(3)-dull), CD62L+ cells (gated on live cells) [3, 10]: 2%
% Pgp^+ (DiOC2(3)-dull cells (based on dye efflux) (gated on live cells)) [3, 11]: 45%
% Pgp^+ (DiOC2(3)-dull), CD62L+ cells (gated on live cells) [3, 11]: 21%
% live cells (P1) ([4]; 10 μM TH9402, 1 h exposure to light, after 2 days): 10%
% live cells (P1) [4, 7]: 14%
% live cells (Propidium iodide negative) [4, 6]: 27%
% live cells (P1) ([4]; 10 μM TH9402, unexposed to light, after 2 days): 78%
% live cells (P1) [4, 10]: 75%
% live cells (Propidium iodide negative) [4, 9]: 79%
enrichment of Pgp-expressing cells, experiment repeated with PBMC [5]: Essentially similar results

COc1ccc(CCN(C)CCCC(C#N)(c2ccc(OC)c(OC)c2)C(C)C)cc1OC (stereo not drawn) [Verapamil]
% Cell Death (PI+ cells) ([2]; 8 days post-treatment, 1 uM): 4%
% Cell Death (PI+ cells) ([2]; 8 days post-treatment, 5 uM): 3%
% Cell Death (PI+ cells) ([2]; 8 days post-treatment, 10 uM): 3%

CC[C@]1(O)C[C@H]2CN(CCc3c([nH]c4ccccc34)[C@@](C(=O)OC)(c3cc4c(cc3OC)N(C=O)[C@H]3[C@@](O)(C(=O)OC)[C@H](OC(C)=O)[C@]5(CC)C=CCN6CC[C@]43[C@@H]65)C2)C1 [Vincristine]
% Pgp^+ (DiOC2(3)-dull) (out of live cells) ([1]; 5 ng/ml, continuous exposure): 8%
% Pgp^+ (DiOC2(3)-dull) (out of live cells) ([1]; 10 ng/ml, continuous exposure): 9%
% Pgp^+ (DiOC2(3)-dull) (out of live cells) ([1]; 20 ng/ml, continuous exposure): 9%
% Pgp^+ (DiOC2(3)-dull) (out of live cells) ([1]; 30 ng/ml, continuous exposure): 11%
% Pgp^+ (DiOC2(3)-dull) (out of live cells) ([1]; 50 ng/ml, continuous exposure): 10%
% Pgp^+ (DiOC2(3)-dull) (out of live cells) [1, 12]: 11%
% Pgp^+ (DiOC2(3)-dull) (out of live cells) [1, 13]: 11%
% Pgp^+ (DiOC2(3)-dull) (out of live cells) [1, 14]: 13%
% Pgp^+ (DiOC2(3)-dull) (out of live cells) [1, 15]: 14%
% Pgp^+ (DiOC2(3)-dull) (out of live cells) [1, 16]: 14%
% Pgp+ (DiOC2(3)-dull) (gated on live cells) ([1]; 0.5 ng/ml, continuous exposure): 7%
% Pgp+ (DiOC2(3)-dull) (gated on live cells) ([1]; 1 ng/ml, continuous exposure): 7%
% Pgp+ (DiOC2(3)-dull) (gated on live cells) ([1]; 2 ng/ml, continuous exposure): 7%
% Pgp+ (DiOC2(3)-dull) (gated on live cells) ([1]; 2.5 ng/ml, continuous exposure): 7%
% Pgp+ (DiOC2(3)-dull) (gated on live cells) ([1]; 3 ng/ml, continuous exposure): 9%
% Pgp+ (DiOC2(3)-dull) (gated on live cells) ([1]; 5 ng/ml, continuous exposure): 8%
% Pgp+ (DiOC2(3)-dull) (gated on live cells) ([1]; 10 ng/ml, continuous exposure): 10%
% Pgp+ (DiOC2(3)-dull) (gated on live cells) ([1]; 20 ng/ml, continuous exposure): 10%
% Pgp+ (DiOC2(3)-dull) (gated on live cells) ([1]; 50 ng/ml, continuous exposure): 9%
% Pgp+ (DiOC2(3)-dull) (gated on live cells) [1, 12]: 13%
% Pgp+ (DiOC2(3)-dull) (gated on live cells) [1, 13]: 11%
% Pgp+ (DiOC2(3)-dull) (gated on live cells) [1, 14]: 9%
% Pgp+ (DiOC2(3)-dull) (gated on live cells) [1, 15]: 10%
% Pgp+ (DiOC2(3)-dull) (gated on live cells) [1, 16]: 18%
enrichment of Pgp^+ cells (in words) ([1]; higher dose treatments, after 2 days): modest enrichment
% Cell Death (PI+ cells) ([2]; 2 days post-treatment, 5 ng/ml, continuous exposure): 13%
% Cell Death (PI+ cells) ([2]; 2 days post-treatment, 10 ng/ml, continuous exposure): 15%
% Cell Death (PI+ cells) ([2]; 2 days post-treatment, 20 ng/ml, continuous exposure): 15%
% Cell Death (PI+ cells) ([2]; 2 days post-treatment, 30 ng/ml, continuous exposure): 20%
% Cell Death (PI+ cells) ([2]; 2 days post-treatment, 50 ng/ml, continuous exposure): 15%
% Cell Death (PI+ cells) ([2]; 2 days post-treatment, 100 ng/ml for 24 h then drug-free medium): 28%
% Cell Death (PI+ cells) ([2]; 2 days post-treatment, 250 ng/ml for 24 h then drug-free medium): 31%
% Cell Death (PI+ cells) ([2]; 2 days post-treatment, 500 ng/ml for 24 h then drug-free medium): 27%
% Cell Death (PI+ cells) ([2]; 2 days post-treatment, 750 ng/ml for 24 h then drug-free medium): 30%
% Cell Death (PI+ cells) ([2]; 2 days post-treatment, 1 μg/ml for 24 h then drug-free medium): 31%
% Cell Death (PI+ cells) ([2]; 7 days post-treatment, 0.5 ng/ml, continuous exposure): 10%
% Cell Death (PI+ cells) ([2]; 7 days post-treatment, 1 ng/ml, continuous exposure): 12%
% Cell Death (PI+ cells) ([2]; 7 days post-treatment, 2 ng/ml, continuous exposure): 8%
% Cell Death (PI+ cells) ([2]; 7 days post-treatment, 2.5 ng/ml, continuous exposure): 10%
% Cell Death (PI+ cells) ([2]; 7 days post-treatment, 3 ng/ml, continuous exposure): 14%
% Cell Death (PI+ cells) ([2]; 7 days post-treatment, 5 ng/ml, continuous exposure): 9%
% Cell Death (PI+ cells) ([2]; 7 days post-treatment, 10 ng/ml, continuous exposure): 9%
% Cell Death (PI+ cells) ([2]; 7 days post-treatment, 20 ng/ml, continuous exposure): 9%
% Cell Death (PI+ cells) ([2]; 7 days post-treatment, 50 ng/ml, continuous exposure): 14%
% Cell Death (PI+ cells) ([2]; 7 days post-treatment, 100 ng/ml for 24 h then drug-free medium): 16%
% Cell Death (PI+ cells) ([2]; 7 days post-treatment, 250 ng/ml for 24 h then drug-free medium): 25%
% Cell Death (PI+ cells) ([2]; 7 days post-treatment, 500 ng/ml for 24 h then drug-free medium): 26%
% Cell Death (PI+ cells) ([2]; 7 days post-treatment, 750 ng/ml for 24 h then drug-free medium): 29%
% Cell Death (PI+ cells) ([2]; 7 days post-treatment, 1 μg/ml for 24 h then drug-free medium): 23%
